Results reported in ChEMBL document CHEMBL3272151, “Quantitative structure-activity relationship of chymotrypsin-ligand interactions” (J Med Chem, 1977).

Key:
[1] = Binding affinity to chymotrypsin (unknown origin); details: Homo sapiens
[2] = Binding affinity to chymotrypsin (unknown origin) assessed as hydrolysis; details: Homo sapiens
[3] = Binding affinity to chymotrypsin (unknown origin) assessed as deacetylation; details: Homo sapiens
[4] = Binding affinity to chymotrypsin (unknown origin) assessed as acetylation at pH 7; details: Homo sapiens
[5] = Binding affinity to alpha-chymotrypsin (unknown origin) assessed as hydrolysis; details: Homo sapiens
[6] = Binding affinity to alpha-chymotrypsin (unknown origin); details: Homo sapiens
[7] = Binding affinity to chymotrypsin (unknown origin) assessed as acetylation at pH 6; details: Homo sapiens
[8] = Inhibition of chymotrypsin (unknown origin); details: Homo sapiens

Description for Homo sapiens: Inhibition of alpha-chymotrypsin (unknown origin)

SMILES	log(1/Km) [1]	logKcat [2]	log K [4]	other results
CCCC[C@H](NC(C)=O)C(=O)OC	2.17	0.92	2.01	log K [3]: 1.28
COC(=O)[C@H](CC(C)C)NC(C)=O	2.42	0.7		log K [3]: 1.2
CCOC(=O)[C@H](Cc1ccc(O)cc1)NC(C)=O	3.15	2.28	3.7	log K [3]: 2.3
CC(C)(C)c1ccc(C(=O)Oc2ccc([N+](=O)[O-])cc2)cc1			4.07	
COC(=O)CNC(C)=O			-0.31	logKcat [5]: -1.89; log(1/Km) [6]: 1.51
COC(=O)CNC(=O)c1ccccc1		-0.9	-0.38	log(1/Km) [6]: 2.12
COC(=O)CNC(=O)c1ccccn1				logKcat [5]: 0.39; log(1/Km) [6]: 2
O=C(Oc1ccc([N+](=O)[O-])cc1[N+](=O)[O-])c1cccc(F)c1			5.25	
COC(=O)[C@H](Cc1ccc(O)cc1)NC(=O)c1ccccc1	4.74	1.96	2.56	log K [3]: 2.08
Clc1ccccc1				log1/Ki (Homo sapiens): 3.09
COC(=O)CNC(=O)c1ccc(N)cc1				logKcat [5]: -1.39; log(1/Km) [6]: 2.08
COC(=O)[C@@H](NC(=O)CCl)C(C)C	1.37	-0.9	-0.49	log K [3]: -0.68
CCc1ccc(C(=O)Oc2ccc([N+](=O)[O-])cc2)cc1			3.97	log K [7]: 3.87
COC(=O)CNC(=O)c1cccnc1				logKcat [5]: -0.34; log(1/Km) [6]: 1.5
COC(=O)CNC(=O)CC(C)C				logKcat [5]: -1.6; log(1/Km) [6]: 1.62
CCC(=O)NCC(=O)OC				logKcat [5]: -1.74; log(1/Km) [6]: 1.42
Cc1ccc(C(=O)Oc2ccc([N+](=O)[O-])cc2)cc1			3.31	log K [7]: 2.85
CC[C@H](NC(=O)c1ccccc1)C(=O)OC	2.85	-0.49	-0.39	log K [3]: 0.18
CCOC(=O)NCC(=O)OC				logKcat [5]: -0.88; log(1/Km) [6]: 1.19
CCOC(=O)[C@H](Cc1ccc(O)cc1)NC(=O)c1ccccc1	4.66	1.93	2.4	log K [3]: 2.12
COC(=O)CNC(=O)c1c[nH]c2ccccc12		-1.25		log(1/Km) [6]: 2.86
COc1ccc(C(=O)Oc2ccc([N+](=O)[O-])cc2)cc1			2.97	log K [3]: -4.39; log K [7]: 2.78
CCC[C@H](NC(=O)c1ccccc1)C(=O)OC	3.07	0.39	0.62	log K [3]: 0.77
COC(=O)CNC(=O)Cc1ccccc1				logKcat [5]: -2.22; log(1/Km) [6]: 2.1

SMILES	log(1/Km) [1]	logKcat [2]	log K [4]	other results
C1=CCCCC1				log1/Ki [8]: 2.07
COC(=O)CNC(=O)C(F)(F)F				logKcat [5]: -1.07; log(1/Km) [6]: 1.27
CCOC(=O)CNC(C)=O	1.2		-1.03	logKcat [5]: -1.42
O=C(Oc1ccc([N+](=O)[O-])cc1)c1ccc(F)cc1			3.11	log K [7]: 2.74
COC(=O)CNC(=O)CCl		-1.26		log(1/Km) [6]: 1.16
CCc1ccccc1				log1/Ki (Homo sapiens): 2.74
COC(=O)[C@H](Cc1ccccc1)NC(=O)c1ccccc1	4.46	1.49	1.66	log K [3]: 1.96
CCOC(=O)[C@H](C)NC(=O)c1ccccc1	2.22	-1.16	-1.16	log K [3]: -0.22
CCCCC				log1/Ki [8]: 2.25
N#Cc1ccc(C(=O)Oc2ccc([N+](=O)[O-])cc2[N+](=O)[O-])cc1			5.94	
Cc1cccc(C(=O)Oc2ccc([N+](=O)[O-])cc2[N+](=O)[O-])c1			4.75	
CC(=O)NCC(=O)Oc1ccc([N+](=O)[O-])cc1	3.4	0.27		log K [3]: -0.12
Cc1ccc(C(=O)O)cc1				log1/Ki [8]: 2.43
O=C(Oc1ccc([N+](=O)[O-])cc1)c1ccc(Cl)cc1			3.56	log K [3]: -3.48; log K [7]: 3.27
Cc1cccc(C(=O)O)c1				log1/Ki [8]: 2.42
COC(=O)[C@H](Cc1ccccc1)NC(C)=O	2.9	1.72	2.9	log K [3]: 2.04
CC(C)c1ccc(C(=O)Oc2ccc([N+](=O)[O-])cc2)cc1			4.44	
COC(=O)CNC(=O)C(C)C				logKcat [5]: -1.68; log(1/Km) [6]: 1.34
O=C(Oc1ccc([N+](=O)[O-])cc1[N+](=O)[O-])c1ccc(Cl)cc1			5.55	
O=C(Oc1ccc([N+](=O)[O-])cc1[N+](=O)[O-])c1ccc(C(F)(F)F)cc1			6.4	
O=C(Oc1ccc([N+](=O)[O-])cc1)c1ccc([N+](=O)[O-])cc1			3.96	log K [3]: -3.44; log K [7]: 3.55
CC[C@H](NC(C)=O)C(=O)OC	1.28	0.02	0.94	log K [3]: 0.22
O=C(Oc1ccc([N+](=O)[O-])cc1[N+](=O)[O-])c1cccc(Cl)c1			5.47	
C1=Cc2ccccc2C1				log1/Ki [8]: 3.67

SMILES	log(1/Km) [1]	logKcat [2]	log K [4]	other results
O=C(O)c1ccccc1				log1/Ki [8]: 1.99
Cc1ccc(C(=O)Oc2ccc([N+](=O)[O-])cc2[N+](=O)[O-])cc1			5.22	
COC(=O)CNC(=O)c1ccco1				logKcat [5]: -0.01; log(1/Km) [6]: 1.71
CCC[C@H](NC(C)=O)C(=O)OC	1.99	0.43	1.55	log K [3]: 0.77
COC(=O)[C@H](Cc1ccc(O)cc1)NC(C)=O				logKcat [5]: 2.07; log(1/Km) [6]: 3.49
c1ccc2ccccc2c1				log1/Ki (Homo sapiens): 3.93
COc1ccc(C(=O)Oc2ccc([N+](=O)[O-])cc2[N+](=O)[O-])cc1			4.96	
CC(C)c1ccc(C(=O)Oc2ccc([N+](=O)[O-])cc2[N+](=O)[O-])cc1			5.99	
O=C(Oc1ccc([N+](=O)[O-])cc1[N+](=O)[O-])c1ccccc1			4.86	
O=C(Oc1ccc([N+](=O)[O-])cc1[N+](=O)[O-])c1cccc(C(F)(F)F)c1			5.47	
COC(=O)[C@@H](NC(C)=O)C(C)C	0.95	-0.82	-0.01	log K [3]: -0.68
CCSCC(=O)NCC(=O)OC				logKcat [5]: -2.27; log(1/Km) [6]: 1.98
COC(=O)CNS(C)(=O)=O				logKcat [5]: -1.92; log(1/Km) [6]: 1.07
N#Cc1ccc(C(=O)Oc2ccc([N+](=O)[O-])cc2)cc1			3.94	log K [7]: 3.35
CCOC(=O)[C@@H](NC(C)=O)C(C)C	0.96	-0.88	-0.26	log K [3]: -0.68
c1ccc2cc3ccccc3cc2c1				log1/Ki (Homo sapiens): 5.26
CC(=O)N[C@H](C(=O)OC(C)C)C(C)C	0.75	-1.08	-0.75	log K [3]: -0.68
Cc1ccccc1				log1/Ki (Homo sapiens): 2.55
O=C(Oc1ccc([N+](=O)[O-])cc1)c1cccc(Cl)c1			3.77	log K [7]: 3.43
O=C(Oc1ccc([N+](=O)[O-])cc1)c1ccccc1			3.16	log K [3]: -3.69; log K [7]: 2.64
CCc1ccc(C(=O)Oc2ccc([N+](=O)[O-])cc2[N+](=O)[O-])cc1			5.53	
O=C(Oc1ccc([N+](=O)[O-])cc1[N+](=O)[O-])c1ccc(F)cc1			4.83	
CCOC(=O)[C@H](Cc1ccccc1)NC(C)=O	2.96	1.84	2.42	log K [3]: 1.97
CCCCCC[C@H](NC(C)=O)C(=O)OC	2.53	0.79		

SMILES	log(1/Km) [1]	logKcat [2]	log K [4]	other results
O=C(Oc1ccc([N+](=O)[O-])cc1)c1cccc(F)c1			3.6	log K [3]: -0.35; log K [7]: 3.17
COC(=O)CNC(=O)C(Cl)Cl				logKcat [5]: -1.64; log(1/Km) [6]: 1.66
O=C(O)CCCc1ccccc1				log1/Ki [8]: 3.22
O=[N+]([O-])c1ccccc1				log1/Ki (Homo sapiens): 3.02
CCOC(=O)C(NC(C)=O)C(=O)OCC	1.51	-0.15		
CC(=O)N[C@@H](Cc1ccccc1)C(=O)O[C@@H](C)c1ccccc1	4.22	2.04		
COC(=O)[C@H](CC1CCCCC1)NC(C)=O	3.72	1.18		
CC(=O)N[C@@H](Cc1ccccc1)C(=O)O[C@@H](C)C1CCCCC1	3.28	1.37		
O=C(Oc1ccc([N+](=O)[O-])cc1)c1cccc(C(F)(F)F)c1			3.59	log K [7]: 3.22
O=C(CNC(=O)c1ccccc1)Oc1ccc(Cl)cc1	3.94	-0.31		
Cc1cccc(C(=O)Oc2ccc([N+](=O)[O-])cc2)c1			3.29	
CC(=O)N[C@@H](Cc1ccccc1)C(=O)O[C@H](C)C1CCCCC1	3.31	1.29		
CS(=O)(=O)N[C@@H](Cc1ccccc1)C(=O)Oc1cccc([N+](=O)[O-])c1	5.06	1.49		
O=C(Oc1ccc([N+](=O)[O-])cc1)c1ccc(C(F)(F)F)cc1			3.95	log K [3]: -2.69; log K [7]: 3.41
O=C(O)CCc1ccccc1				log1/Ki [8]: 2.79
CC(=O)NCC(=O)O[C@H](C)c1ccccc1	3.66	-0.6		
O=C(O)c1ccc2ccccc2c1				log1/Ki [8]: 3.86
CC(C)(C)c1ccc(C(=O)O)cc1				log1/Ki [8]: 3.89
CCC[C@H](NC(C)=O)C(=O)OC(C)C	1.51	0.46		
CCCCC[C@H](NC(C)=O)C(=O)OC	2.79	1.13		
COC(=O)CNC(=O)c1ccncc1				logKcat [5]: -0.8; log(1/Km) [6]: 1.75
CCC[C@H](NC(C)=O)C(=O)OCCCl	3.1	0.57		
COC(=O)[C@@H](NC(=O)c1ccccc1)C(C)C	2.34	-1.19	-1.04	log K [3]: -0.66
